Data reported in patent publication US12410194B2, “Potent and selective azaindole inhibitors of CDK8 and CDK19” (priority 2019, dated 2025).

Biological target: CDK8/cyclin C (Homo sapiens (Human), UniProt P49336)
Test: LanthaScreen Eu Kinase Binding Assay for CDK8/cyclin C
Conditions: 10-point curve, 4-fold dilution series, 60 min at room temperature

Sequence of CDK8/cyclin C (P49336 whole entry, looked up): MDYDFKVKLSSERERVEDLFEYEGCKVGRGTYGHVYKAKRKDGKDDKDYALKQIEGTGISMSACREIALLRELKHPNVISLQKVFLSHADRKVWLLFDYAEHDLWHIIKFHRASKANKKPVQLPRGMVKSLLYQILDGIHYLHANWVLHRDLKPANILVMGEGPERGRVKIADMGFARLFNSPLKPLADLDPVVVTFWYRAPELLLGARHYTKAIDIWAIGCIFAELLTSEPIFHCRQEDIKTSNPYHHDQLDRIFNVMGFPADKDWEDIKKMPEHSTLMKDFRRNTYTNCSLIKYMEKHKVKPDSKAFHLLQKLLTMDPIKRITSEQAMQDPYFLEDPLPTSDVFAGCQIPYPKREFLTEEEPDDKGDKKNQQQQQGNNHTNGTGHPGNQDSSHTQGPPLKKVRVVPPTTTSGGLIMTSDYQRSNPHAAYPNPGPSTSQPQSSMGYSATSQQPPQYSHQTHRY
Sequence of CDK8/cyclin C (P24863 whole entry partner, looked up): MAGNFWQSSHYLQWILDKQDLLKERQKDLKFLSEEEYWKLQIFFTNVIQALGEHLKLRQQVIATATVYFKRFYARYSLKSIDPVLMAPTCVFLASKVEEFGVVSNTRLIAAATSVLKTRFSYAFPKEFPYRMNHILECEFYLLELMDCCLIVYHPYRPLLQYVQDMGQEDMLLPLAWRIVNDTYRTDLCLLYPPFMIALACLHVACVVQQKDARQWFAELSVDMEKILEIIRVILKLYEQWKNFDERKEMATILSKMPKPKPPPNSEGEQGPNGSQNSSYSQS

Compound	IC50 [nM]
O=C1NCCC12CCN(c1c(-c3ccc4ncsc4c3)cnc3[nH]ccc13)CC2 [Compound 004, 8-(5-(benzo[d]thiazol-6-yl)-1H-pyrrolo[2,3-b]pyridin-4-yl)-2,8-diazaspiro[4.5]decan-1-one]	24.5
Cn1ncc2cc(-c3cnc4[nH]ccc4c3N3CCC4(CC3)NC(=O)NC4=O)ccc21 [Compound 014, 8-(5-(1-methyl-1H-indazol-5-yl)-1H-pyrrolo[2,3-b]pyridin-4-yl)-1,3,8-triazaspiro[4.5]decane-2,4-dione]	3
Cn1ncc2cc(-c3cnc4[nH]cnc4c3N3CCC4(CCNC4=O)CC3)ccc21 [Compound 016, 8-(6-(1-methyl-1H-indazol-5-yl)-3H-imidazo[4,5-b]pyridin-7-yl)-2,8-diazaspiro[4.5]decan-1-one]	10
Cn1ncc2cc(-c3cnc4[nH]ccc4c3N3CCC4(CCNC4=O)C3)ccc21 (stereo not shown) [Compound 017, 7-(5-(1-methyl-1H-indazol-5-yl)-1H-pyrrolo[2,3-b]pyridin-4-yl)-2,7-diazaspiro[4.4]nonan-1-one]	55
O=C1NCCC12CCN(c1c(-c3ccc4[nH]cnc4c3)cnc3[nH]ccc13)CC2 [Compound 008, 8-(5-(1H-benzo[d]imidazol-5-yl)-1H-pyrrolo[2,3-b]pyridin-4-yl)-2,8-diazaspiro[4.5]decan-1-one]	4.97
Cn1cnc2cc(-c3cnc4[nH]ccc4c3N3CCC4(CCNC4=O)CC3)ccc21 [Compound 005, 8-(5-(1-methyl-1H-benzo[d]imidazol-5-yl)-1H-pyrrolo[2,3-b]pyridin-4-yl)-2,8-diazaspiro[4.5]decan-1-one]	32.2
O=C1NCCC12CCN(c1c(-c3ccc4ncnn4c3)cnc3[nH]ccc13)CC2 [Compound 007, 8-(5-([1,2,4]triazolo[1,5-a]pyridin-6-yl)-1H-pyrrolo[2,3-b]pyridin-4-yl)-2,8-diazaspiro[4.5]decan-1-one]	274
O=C1NCCC12CCN(c1c(-c3ccc4scnc4c3)cnc3[nH]ccc13)CC2 [Compound 002, 8-(5-(benzo[d]thiazol-5-yl)-1H-pyrrolo[2,3-b]pyridin-4-yl)-2,8-diazaspiro[4.5]decan-1-one]	6.46
Cn1ncc2cc(-c3cnc4[nH]cc(Cl)c4c3N3CCC4(CCNC4=O)CC3)ccc21 [Compound 018, 8-(3-chloro-5-(1-methyl-1H-indazol-5-yl)-1H-pyrrolo[2,3-b]pyridin-4-yl)-2,8-diazaspiro[4.5]decan-1-one]	1.73
Cn1ncc2cc(-c3cnc4sccc4c3N3CCC4(CCNC4=O)CC3)ccc21 [Compound 019, 8-(5-(1-methyl-1H-indazol-5-yl)thieno[2,3-b]pyridin-4-yl)-2,8-diazaspiro[4.5]decan-1-one]	206
Cn1ncc2cc(-c3cnc4[nH]nc(Cl)c4c3N3CCC4(CCNC4=O)CC3)ccc21 [Compound 020]	1.37
O=C1NCCC12CCN(c1c(-c3ccn4ccnc4c3)cnc3[nH]ccc13)CC2 [Compound 009, 8-(5-(imidazo[1,2-a]pyridin-7-yl)-1H-pyrrolo[2,3-b]pyridin-4-yl)-2,8-diazaspiro[4.5]decan-1-one]	76.4
Cn1ncc2cc(-c3cnc4[nH]ccc4c3N3CCC4(CCCNC4=O)CC3)ccc21 [Compound 006, 9-(5-(1-methyl-1H-indazol-5-yl)-1H-pyrrolo[2,3-b]pyridin-4-yl)-2,9-diazaspiro[5.5]undecan-1-one]	3
Cn1ncc2cc(-c3cnc4[nH]ccc4c3N3CCC4(CC3)CNC(=O)O4)ccc21 [Compound 011, 8-(5-(1-methyl-1H-indazol-5-yl)-1H-pyrrolo[2,3-b]pyridin-4-yl)-1-oxa-3,8-diazaspiro[4.5]decan-2-one]	7
Cc1n[nH]c2ncc(-c3ccc4c(cnn4C)c3)c(N3CCC4(CCNC4=O)CC3)c12 [Compound 021]	36
Cn1ncc2cc(-c3cnc4[nH]ccc4c3N3CCC4(CC3)CNC4=O)ccc21 [Compound 010, 7-(5-(1-methyl-1H-indazol-5-yl)-1H-pyrrolo[2,3-b]pyridin-4-yl)-2,7-diazaspiro[3.5]nonan-1-one]	6.3
